Assay [1] addresses Death-associated protein kinase 2 (Homo sapiens) (UniProt Q9UIK4). As to the kind of experiment: Selectivity interaction (KinomeScan (DiscoverX)) EUB0000666a DAPK2. To be noted: at 10 µM.
For assay [2], the target named is T1, Serine/threonine-protein kinase ULK3 (Homo sapiens) (UniProt Q6PHR2).
T1 sequence (whole entry): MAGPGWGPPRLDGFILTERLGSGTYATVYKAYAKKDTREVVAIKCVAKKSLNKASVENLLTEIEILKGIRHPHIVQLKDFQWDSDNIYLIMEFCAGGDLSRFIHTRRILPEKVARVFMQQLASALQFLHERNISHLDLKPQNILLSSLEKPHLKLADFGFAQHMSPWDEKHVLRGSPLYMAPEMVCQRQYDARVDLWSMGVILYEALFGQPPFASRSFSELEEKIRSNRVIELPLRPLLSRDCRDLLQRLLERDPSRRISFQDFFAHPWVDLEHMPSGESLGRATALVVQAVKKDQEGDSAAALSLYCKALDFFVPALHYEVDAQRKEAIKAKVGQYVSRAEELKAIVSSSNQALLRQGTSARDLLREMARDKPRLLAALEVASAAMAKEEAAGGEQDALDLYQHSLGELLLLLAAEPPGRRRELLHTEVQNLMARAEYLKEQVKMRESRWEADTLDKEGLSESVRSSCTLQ
In words: Selectivity interaction (KinomeScan (DiscoverX)) EUB0000607a ULK3. To be noted: at 10 µM.

Assay [3] concerns the target T2, Serine/threonine-protein kinase Nek5 (Homo sapiens) (UniProt Q6P3R8).
T2 sequence (whole entry): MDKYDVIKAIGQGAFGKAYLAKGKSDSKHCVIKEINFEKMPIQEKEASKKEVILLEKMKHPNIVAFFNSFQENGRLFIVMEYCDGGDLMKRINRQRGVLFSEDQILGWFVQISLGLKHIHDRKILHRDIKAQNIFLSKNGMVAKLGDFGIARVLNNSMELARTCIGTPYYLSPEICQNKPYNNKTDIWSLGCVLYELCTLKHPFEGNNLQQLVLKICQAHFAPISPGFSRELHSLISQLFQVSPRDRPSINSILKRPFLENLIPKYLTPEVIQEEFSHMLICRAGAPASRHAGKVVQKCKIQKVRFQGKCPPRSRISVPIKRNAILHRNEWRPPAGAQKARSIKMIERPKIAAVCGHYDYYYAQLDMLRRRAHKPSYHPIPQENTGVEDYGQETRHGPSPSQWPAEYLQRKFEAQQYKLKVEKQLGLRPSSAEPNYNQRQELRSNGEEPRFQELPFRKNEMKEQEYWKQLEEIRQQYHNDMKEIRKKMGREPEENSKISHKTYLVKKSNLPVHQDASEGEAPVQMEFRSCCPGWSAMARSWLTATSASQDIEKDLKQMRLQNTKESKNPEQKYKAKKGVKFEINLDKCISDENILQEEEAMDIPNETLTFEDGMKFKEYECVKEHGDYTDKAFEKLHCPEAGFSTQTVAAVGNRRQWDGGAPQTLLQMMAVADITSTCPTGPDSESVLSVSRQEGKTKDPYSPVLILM
In words: Selectivity interaction (Ambit KINOMEscan and KiNATiv profiling in Jurkat cells) EUB0000090b NEK5. In kind it is cell-based. The note with it: at 1 µM.

The target of assay [4] is T3, Tyrosine-protein kinase ZAP-70 (Homo sapiens, UniProt P43403).
T3 sequence (P43403 whole entry): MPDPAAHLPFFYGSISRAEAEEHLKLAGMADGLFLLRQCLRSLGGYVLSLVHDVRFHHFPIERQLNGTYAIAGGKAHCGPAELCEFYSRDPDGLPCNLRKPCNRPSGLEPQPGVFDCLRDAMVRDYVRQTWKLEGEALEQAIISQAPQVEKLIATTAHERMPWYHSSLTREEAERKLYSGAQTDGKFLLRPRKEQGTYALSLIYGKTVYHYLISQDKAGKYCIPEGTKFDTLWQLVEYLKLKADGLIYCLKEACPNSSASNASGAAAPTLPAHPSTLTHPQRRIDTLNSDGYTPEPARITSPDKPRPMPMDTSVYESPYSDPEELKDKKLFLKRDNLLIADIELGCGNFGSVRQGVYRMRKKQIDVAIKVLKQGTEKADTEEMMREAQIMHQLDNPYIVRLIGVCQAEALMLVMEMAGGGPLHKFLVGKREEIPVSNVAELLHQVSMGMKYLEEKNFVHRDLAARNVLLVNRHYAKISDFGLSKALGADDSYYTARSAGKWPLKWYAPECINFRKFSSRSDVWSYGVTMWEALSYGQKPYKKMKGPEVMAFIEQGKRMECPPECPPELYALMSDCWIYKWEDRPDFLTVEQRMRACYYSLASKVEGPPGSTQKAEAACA

For assay [5], the target named is T4, 5-hydroxytryptamine receptor 3A (Homo sapiens) (UniProt P46098).
T4 sequence (whole entry): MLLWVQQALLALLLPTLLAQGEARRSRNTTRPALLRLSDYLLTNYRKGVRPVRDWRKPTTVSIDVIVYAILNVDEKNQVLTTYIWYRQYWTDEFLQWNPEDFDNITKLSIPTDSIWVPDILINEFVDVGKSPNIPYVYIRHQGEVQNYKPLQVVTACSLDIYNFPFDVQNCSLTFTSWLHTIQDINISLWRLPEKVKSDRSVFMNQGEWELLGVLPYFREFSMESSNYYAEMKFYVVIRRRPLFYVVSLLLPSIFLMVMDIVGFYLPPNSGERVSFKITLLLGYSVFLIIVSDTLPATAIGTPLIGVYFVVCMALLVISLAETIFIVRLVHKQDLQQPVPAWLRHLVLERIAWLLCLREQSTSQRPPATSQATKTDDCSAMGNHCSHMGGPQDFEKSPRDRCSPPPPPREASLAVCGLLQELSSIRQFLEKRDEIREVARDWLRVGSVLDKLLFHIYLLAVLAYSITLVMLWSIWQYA
In words: Selectivity interaction (Panel of kinases, GPCRs, ion channels and transporters (enzymatic assay)) EUB0000223bCl HTR3A.

The target in assay [6] is SRSF protein kinase 2 (Homo sapiens) (UniProt P78362). As to the kind of experiment: Selectivity interaction (KinomeScan (DiscoverX)) EUB0000618a SRPK2. The note with it: at 10 µM.
In assay [7] the target is 5'-AMP-activated protein kinase catalytic subunit alpha-1 (Homo sapiens, UniProt Q13131). In words: Selectivity interaction (Kinase panel (KiNativ target engagement assay in Jurkat cells)) EUB0001635a PRKAA1. The note with it: Selectivity number of off-targets 0.0, Selectivity number of targets 233.0, Source Knowledge https://www.sciencedirect.com/science/article/pii/S2451945619300674?via%3Dihub, at 1 µM. In kind it is cell-based.

The values below come from ChEMBL document CHEMBL5465560, “Selectivity Literature for EUbOPEN Chemogenomic Library” (2024).

Bounds are passed on as bounds.

Death-associated protein kinase 2 (Homo sapiens), sequence (Q9UIK4 whole entry, looked up): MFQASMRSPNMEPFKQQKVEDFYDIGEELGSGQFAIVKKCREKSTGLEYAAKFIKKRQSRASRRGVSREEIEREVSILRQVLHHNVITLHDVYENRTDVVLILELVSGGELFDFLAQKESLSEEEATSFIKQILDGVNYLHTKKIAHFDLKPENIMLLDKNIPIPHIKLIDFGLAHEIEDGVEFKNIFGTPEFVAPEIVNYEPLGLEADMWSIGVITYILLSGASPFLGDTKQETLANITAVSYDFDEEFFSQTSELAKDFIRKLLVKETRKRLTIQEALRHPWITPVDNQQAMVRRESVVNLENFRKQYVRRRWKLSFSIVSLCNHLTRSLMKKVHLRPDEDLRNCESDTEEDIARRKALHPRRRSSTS
5'-AMP-activated protein kinase catalytic subunit alpha-1, sequence (Q13131 whole entry, looked up): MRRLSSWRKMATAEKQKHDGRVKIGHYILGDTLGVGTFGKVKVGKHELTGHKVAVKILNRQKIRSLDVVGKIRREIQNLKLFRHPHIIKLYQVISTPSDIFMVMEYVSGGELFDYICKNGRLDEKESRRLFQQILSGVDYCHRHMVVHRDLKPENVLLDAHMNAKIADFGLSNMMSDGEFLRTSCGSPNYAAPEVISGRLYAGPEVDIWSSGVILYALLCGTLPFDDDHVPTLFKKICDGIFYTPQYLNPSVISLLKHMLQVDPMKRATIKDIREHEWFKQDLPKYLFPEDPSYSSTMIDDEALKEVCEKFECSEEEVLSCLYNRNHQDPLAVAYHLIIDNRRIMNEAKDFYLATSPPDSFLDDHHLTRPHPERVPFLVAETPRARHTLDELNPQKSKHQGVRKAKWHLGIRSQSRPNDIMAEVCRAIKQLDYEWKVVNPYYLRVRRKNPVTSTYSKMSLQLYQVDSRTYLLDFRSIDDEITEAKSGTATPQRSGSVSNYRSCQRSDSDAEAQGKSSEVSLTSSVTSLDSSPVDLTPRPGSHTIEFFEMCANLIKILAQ
SRSF protein kinase 2 (Homo sapiens), sequence (P78362 whole entry, looked up): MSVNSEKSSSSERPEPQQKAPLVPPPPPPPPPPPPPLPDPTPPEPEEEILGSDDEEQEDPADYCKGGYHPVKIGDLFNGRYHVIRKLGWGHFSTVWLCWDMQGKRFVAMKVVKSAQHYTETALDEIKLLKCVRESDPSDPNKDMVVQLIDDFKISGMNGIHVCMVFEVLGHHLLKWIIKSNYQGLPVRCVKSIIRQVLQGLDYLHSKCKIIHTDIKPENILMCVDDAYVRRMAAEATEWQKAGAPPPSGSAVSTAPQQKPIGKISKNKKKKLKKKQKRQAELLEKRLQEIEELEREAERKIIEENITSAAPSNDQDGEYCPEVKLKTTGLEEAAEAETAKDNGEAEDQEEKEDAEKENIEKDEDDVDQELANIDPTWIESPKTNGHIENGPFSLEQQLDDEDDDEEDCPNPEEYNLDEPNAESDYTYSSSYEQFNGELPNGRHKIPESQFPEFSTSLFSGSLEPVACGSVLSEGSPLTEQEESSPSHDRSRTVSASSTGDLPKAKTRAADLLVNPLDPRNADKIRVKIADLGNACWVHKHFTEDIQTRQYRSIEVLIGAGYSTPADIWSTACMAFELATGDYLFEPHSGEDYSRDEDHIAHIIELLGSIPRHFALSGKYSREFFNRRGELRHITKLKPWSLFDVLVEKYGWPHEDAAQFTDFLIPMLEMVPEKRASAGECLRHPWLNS

In assay [1], `O=C(NOC[C@H](O)CO)c1ccc(F)c(F)c1Nc1ccc(I)cc1F` showed a % of control of 100%.

In assay [2], `CNC(=O)Nc1ccc(-c2nc(N3CC4CCC(C3)O4)c3cnn(C4CCC5(CC4)OCCO5)c3n2)cc1` came in with a % of control of 92%.

In the case of `CN(C)C/C=C/C(=O)Nc1ccc(C(=O)N2CCCC(Nc3ncc(Cl)c(-c4c[nH]c5ccccc45)n3)C2)cc1` (configuration not stated), the % of control in assay [3] was found to be 86%.

Broadly, the IC50 is the concentration that inhibits the measured activity by half. Turning to `CCc1cccc(CC)c1NC(=O)c1nn(C)c2c1CCc1cnc(Nc3ccc(C(=O)NC4CCN(C)CC4)cc3OC(F)(F)F)nc1-2`, the 50% inhibitory concentration (IC50) in assay [4] was above 10 µM.

For the compound `COc1cc(C(=O)N2CC[C@@H](O)[C@@H](N)C2)cc2nc(-c3cc4ccccc4n3CC3CC3)n(C)c12`, the pXC50 in assay [5] is 5.9 M.

In turn, `O[C@H]1CC[C@H](Nc2ncc3nc(Nc4c(F)cc(F)cc4F)n([C@H]4CCOC4)c3n2)CC1` returned a % of control in assay [6] of 100%.

On to `C=CC(=O)Nc1ccc(C(=O)Nc2[nH]nc3c2CN(C(=O)N[C@H](CN(C)C)c2ccccc2)C3(C)C)cc1`, for which the % of engagement in assay [7] was -51.7%.
